Like-named read-outs stand apart in the source and are kept apart here.
How the values were obtained:
[1] = cited from earlier work; for elimination half-life (t1/2): human urine
[2] = Stability study of betel alkaloid standards in MeOH, HCl and NaOH at 45°C; format: physicochemical; conditions: 1N NaOH; for fate of the carboxylic acids in basic conditions: after 24 h
[3] = Urine time course of betel biomarkers after betel chewing; conditions: for return to baseline levels in urine (time post-chewing) / time of peak in urine post-chewing: participant 1
[4] = for time of peak in saliva post-chewing: after one serving of betel nut/quid, n=4; for detected in saliva above the limit of detection up to (time after chewing): all participants
[5] = Hair analysis for betel related compounds; format: in vivo, human; conditions: for levels in hair: hair sample from a tobacco consumer
[6] = after infusion; cited from earlier work

| Compound | elimination half-life (t1/2) [1] [h] | return to baseline levels in urine (time post-chewing) [3] | time of peak in urine post-chewing [3] | return to baseline levels in saliva (time post-chewing) ([4]; saliva) [h] | time of peak in saliva post-chewing ([4]; saliva) [h] | detected in saliva above the limit of detection up to (time after chewing) ([4]; saliva) | further results |
| --- | --- | --- | --- | --- | --- | --- | --- |
| CN1CCC=C(C(=O)O)C1 [arecaidine] | 4.3 | approximately 8 h | approximately 2 h | 8 | ≤ 2 | up to 8 h | fate of the carboxylic acids in basic conditions [2]: disappeared |
| C=CCc1ccc(OC)c(O)c1 [chavibetol] |  |  |  | 2 | 0.5 to 1 |  | detection in saliva ([4]; participant 2, who chewed exclusively betel nut): absence; detection in saliva ([4]; participants 1, 3 and 4, who consumed Piper betle leaves in their BQ): detected |
| COC(=O)C1=CCCNC1 [guvacoline] |  | approximately 8 h | approximately 2 h | 8 | ≤ 2 | up to 8 h | stability in basic conditions [2]: not stable; time to hydrolysis to the carboxylic acid [2]: up to 1 hour |
| C=CCc1ccc(OC)c(OC2OC(C(=O)O)C(O)C(O)C2O)c1 (stereo not shown) [chavibetol glucuronide] |  | approximately 8 h | approximately 2 h |  |  |  |  |
| CN1CCC[C@H]1c1cccnc1 [nicotine] |  |  |  |  |  |  | levels in hair [5]: high levels |
| CN1CCCC(C(=O)O)C1 (stereo not shown) [NMNA, N-methylnipecotic acid] | 7.9 |  |  |  |  |  | urinary NMNA excretion ([1]; subjects consumed water extracts of areca nuts): 1298 ng/mg creatinine; urinary excretion of NMNA relative to that of arecaidine ([1]; urine): < 25%; detection in urine samples ([3]; LC-MS): failed; detection in hair samples ([5]; hair of participants who chewed betel nuts at least once daily for ½-2 h): could not detect; detection in saliva samples ([4]; saliva, LC-MS): failed |
| COC(=O)C1=CCCN(C)C1 [arecoline] | 0.97 | approximately 8 h | approximately 2 h | 8 | ≤ 2 | up to 8 h | stability in basic conditions [2]: not stable; time to hydrolysis to the carboxylic acid [2]: up to 1 hour; disappearance of arecoline from plasma [6]: ≥ 15 min |
| CN1C(=O)CC[C@H]1c1cccnc1 [cotinine] |  |  |  |  |  |  | levels in hair [5]: high levels |
| O=C(O)C1=CCCNC1 [guvacine] |  | approximately 8 h | approximately 2 h | 8 | ≤ 2 | up to 8 h | fate of the carboxylic acids in basic conditions [2]: disappeared |

Source: PMC4967029 (Drug testing and analysis, 2015)
